# Laboratory results reported in patent publication US20030186352A1, “Apicomplexan chorismate synthase sequences and an inhibitor of the shikimate pathway” (priority 1998, published 2003).
# Read-outs that look alike come from different tables or passages of the source.
# Columns and labels:
# [1] = tested on: D6 clone of Plasmodium falciparum; assay: P. falciparum in vitro growth assay (Milhous et al.), D6 clone; assay type: cell-based; conditions: for IC50 / IC90: Plasmodium falciparum
# [2] = tested on: W2 clone of Plasmodium falciparum; assay: P. falciparum in vitro growth assay (Milhous et al.), W2 clone; assay type: cell-based; conditions: for IC50 / IC90: Plasmodium falciparum
# [3] = tested on: T. gondii tachyzoites (RH strain); assay: T. gondii growth inhibition in HFF monolayers, tritiated uracil uptake; assay type: cell-based, Toxoplasma gondii
# Experimental: The improvements are based on microscopic visual imspection of infected and inhibitor treated cultures, and on quantitation of nucleic acid synthesis of the parasite by measure intake of ^3H uracil onto the parasite's nucleic acid. Uracil is not utilized by mammalian cells. […] Only the RH strain tachyzoites, cultured for up to 72 hours, had been used in previously reported assays. The use of Me49, Ptg, and R5 mutant are unique aspects of the methods used in these assays in this invention.
# In these assays toxicity of a candidate inhibitor was assessed by its ability to prevent growth of human foreskin fibroblasts (HFF) after 4 days and after 8 days as measured by tritiated thymidine uptake and microscopic evaluation. Confluent monolayers of HFF were infected with tachyzoites and bradyzoites. Inhibitor was added one hour later. Non-toxic doses were used in parasite growth inhibition assays. Parasite growth was measured by ability to incorporate tritiated uracil during the last 18 hours of culture.
# First the toxicity of gabaculine was assessed by its ability to prevent growth of human foreskin fibroblasts (HFF) as measured by ^3H-thymidine uptake and microscopic evaluation. Non-toxic doses were used in parasite growth inhibition assays. in vitro parasite growth inhibition assays included confluent monolayers of HFF infected with tachyzoites (RH) or mutant Me49 (R5). Gabaculine was added 1 hour later. Parasite growth was measured by the ability to incorporate 3H-uracil during the last 18 hours of culture. In addition, parasite growth was evaluated microscopically in Giemsa stained slides.
# Confluent monolayers of HFF cells, grown in 96-well plates are infected with T. gondii tachyzoites of the RH strain and serial dilutions of anti-microbial compound are applied 1 hour later. T. gondii growth is assessed in these cultures by their ability to incorporate tritiated uracil (2.5 μCi/well) added during the last 18 hours of culture. After harvesting cells with an automatic cell harvester, uracil incorporation is measured by liquid scintillation.
# C. parvum = C. parvum infection of MDBKF5D2 cell monolayers, immunofluorescence assay at 48 hours; assay type: cell-based, Cryptosporidium parvum
# Experimental: C. parvum oocysts at 50,000/well were incubated at 37° C. (8% CO2) on confluent MDBKF5D2 cell monolayers in 96 well microtiter plates with the following concentrations of each drug. […] The level of infection of each well was determined and analyzed by an immunofluorescence assay at 48 hours using an antibody to C. parvum sporozoites made in rabbits at a concentration of 0.1%. Fluorescein-conjugated goat anti-rabbit antibody was used at a concentration of 1%.
# C. parvum oocysts at 50,000/well were incubated with each drug (PRM=paromomycin which is the positive control, NPMG, gabaculine, SHAM, 8-hydroxyquinoline) at 37° C. (8% carbon dioxide) on confluent MDBKF5D2 cell monolayers in 96 well microtiter plates. The level of infection of each well was determined and analyzed by an immunofluorescence assay at 48 hours using as an antibody C. parvum sporozoite rabbit anti-serum (0.1%), and using fluorescein-conjugated goat anti-rabbit antibody (1%). Data are expressed as mean parasite count/field when 16 fields counted at 10× magnification “s.d. of the mean” (FIG. 6).
# T. gondii tachyzoites = assay: TSA-DCA experiments: T. gondii growth in fibroblasts (3H uracil uptake, visual appearance); assay type: cell-based, Toxoplasma gondii
# Experimental: (§1) Effects of inhibitors of T. gondii in vitro were assessed after 1, 4 or 5 days in tissue culture using fibroblasts infected with […] tachyzoites of T. gondii. Effects in the fibroblasts were scored. Compounds used were TSA-DCA, TSA-Na+, and DCA at various concentrations ranging up to 1 mM. Uptake of ^3H uracil (utilized by T. gondii but not by mammalian cells), and visual appearance of T. gondii in these cells were used to assess parasite growth. Effect of compounds on host cells was studied by microscopic examination and by measuring uptake of tritiated thymidine utilizing a non-confluent monolayer of fibroblasts.
# (§2) The results in table 5 show the greatest inhibitory effect of TSA-DCA and some effect of DCA at a higher concentration. […] “T50” is the concentration at which 50% of the cells were killed (T=toxic) and so forth. […] Analysis was uptake of H3 thymidine. Confirmation was by visual inspection of microscope slides (e.g. FIGS. 15 A-D).
# fibroblasts = assay: TSA-DCA experiments: effect on host cells (tritiated thymidine uptake, non-confluent fibroblasts); assay type: cell-based, human
# Experimental: as §1, §2
# T. gondii = T. gondii infection in mice: manifestations, parasitemia, brain cysts; set-up: species or system Toxoplasma gondii
# Text: Cyst numbers present in a suspension of brain are enumerated, or cyst numbers in formalin fixed paraffin embedded sections are quantitated.
# In this competitive PCR method the T. gondii B1 gene is amplified by PCR in the presence of a construct which produces a product slightly smaller than the wild type B1 gene. The amount of construct can be quantitated to semiquantitate the amount of the competing wild type gene.
# A method to measure the amount of parasitemia in mouse peripheral blood has been developed. Briefly, the target for PCR amplification is the 35 fold repetitive B1 gene of T. gondii and the amplification was performed using primers previously reported. […] Competitive PCR was performed by spiking individual reactions (containing equal amounts of genomic DNA) with a dilution of the internal standard. Since this internal control contains the same primer template sequences, it competes with the B1 gene of T. gondii for primer binding and amplification. The sensitivity of the PCR reaction in each sample can be monitored. Following competitive PCR, the PCR products are distinguished by size and the amount of products generated by the target and internal standard can be compared on a gel. The amount of competitor DNA yielding equal amounts of products gives the initial amount of target gene.
# [4] = D6 clone (second value of each pair), read-out: Concentrations of other compounds that inhibited these clones in this assay
# [5] = W2 clone (first value of each pair), read-out: Concentrations of other compounds that inhibited these clones in this assay
# [6] = D6 clone (second value of each pair)
# [7] = W2 clone (first value of each pair)
# [8] = exp. 5/15, day 4, range 12-100 (200) uM, no visual
# [9] = exp. 5/29, day 4, range 125-1000 (2000) uM, no visual
# [10] = exp. 8/23, day 1, range 250-2000 uM
smiles,measurement,setting,value
C=C[C@H]1C[N@@]2CC[C@H]1C[C@H]2[C@H](O)c1ccnc2ccc(OC)cc12 [Quinine],IC50,[1]; [4],4.41 ng/mL
same,IC50,[2]; [5],0.0386 µg/mL
"O=C(O)CC[N+](=O)[O-] [3-NPA, 3-Nitropropionic acid]",restriction of CPM (tritiated uracil incorporation),"[3]; 3-NPA 0.006 mg ml, 4-day assay, medium about 30,000 CPM",around 60%
same,inhibition of C. parvum,C. parvum,inhibited
same,IC50,[1]; D6,2820 ng/mL
same,IC90,[1]; D6,2.82 µg/mL
same,IC50,[2]; W2,3.3 µg/mL
same,IC90,[2]; W2,4.61 µg/mL
CCN(CC)CCCC(C)Nc1ccnc2cc(Cl)ccc12 (stereo not drawn) [Chloroquin],Concentrations of other compounds that inhibited these clones in this assay,[1]; [6],2.88 ng/mL
same,Concentrations of other compounds that inhibited these clones in this assay,[2]; [7],40.86 ng/mL
"C1CCC(NC2CCCCC2)CC1 [DCA, dicyclohexylamine]",IC50,"T. gondii tachyzoites; Toxoplasma gondii, Fibroblast, 24 h",500 µM
same,IC75,T. gondii tachyzoites; day 1 of culture,1000 µM
same,IC7 5-80,T. gondii tachyzoites; [8],none
same,IC50,T. gondii tachyzoites; [8],none
same,IC7 5-80,T. gondii tachyzoites; [9],none
same,IC50,T. gondii tachyzoites; [9],none
same,IC7 5-80,T. gondii tachyzoites; [10],250 to 500 µM
same,IC7 5-80,"T. gondii tachyzoites; exp. 9/8, day 1, range 125-1000 uM",1000 µM
same,T50,fibroblasts; [8],50 µM
same,T90,fibroblasts; [8],none
same,T50,fibroblasts; [9],none
same,T90,fibroblasts; [9],2000 µM
same,T50,fibroblasts; [10],1000 µM
same,T90,fibroblasts; [10],none
Nc1ccc(S(=O)(=O)Nc2ncccn2)cc1 [Sulfadiazine],reduction of growth of T. gondii,"[3]; sulphadiazine 1.56 μmg/ml, 4 days, medium about 36,000 CPM",about 60%
same,manifestations of infection in vivo,T. gondii,reduced manifestations of infection
CCCCN(CCCC)CCC(O)c1cc2c(Cl)cc(Cl)cc2c2cc(C(F)(F)F)ccc12 (stereo not drawn) [HAL],Concentrations of other compounds that inhibited these clones in this assay,[1]; [6],0.51 ng/mL
same,Concentrations of other compounds that inhibited these clones in this assay,[2]; [7],0.33 ng/mL
CCc1nc(N)nc(N)c1-c1ccc(Cl)cc1 [Pyrimethamine],IC50,[1]; [4],0.05 ng/mL
same,IC50,[2]; [5],0.0821 µg/mL
NC[C@@H]1O[C@H](O[C@H]2[C@@H](O)[C@H](O[C@@H]3[C@@H](O)[C@H](N)C[C@H](N)[C@H]3O[C@H]3O[C@H](CO)[C@@H](O)[C@H](O)[C@H]3N)O[C@@H]2CO)[C@H](N)[C@@H](O)[C@@H]1O [PRM],approximate 95% Cl count (mean parasite count per field),"C. parvum; paromomycin with ethanol (positive control), media and ethanol ~1200",~100 count/field
same,approximate 95% Cl count (mean parasite count per field),"C. parvum; paromomycin without ethanol (positive control), media alone ~1800",~200 count/field
"Oc1cccc2cccnc12 [8-OH-quinoline, 8-hydroxyquinoline]",effect against T. gondii,[3],effective against T. gondii
same,approximate 95% Cl count (mean parasite count per field),"C. parvum; 8-OH-quinoline 0.1 μg/ml, media alone ~1800",~1300 count/field
same,approximate 95% Cl count (mean parasite count per field),"C. parvum; 8-OH-quinoline 1 μg/ml, media alone ~1800",~1100 count/field
same,approximate 95% Cl count (mean parasite count per field),"C. parvum; 8-OH-quinoline 10 μg/ml, media alone ~1800",~900 count/field
same,approximate 95% Cl count (mean parasite count per field),"C. parvum; 8-OH-quinoline 100 μg/ml, media alone ~1800",~300 count/field
same,IC50,[1]; D6,1200 ng/mL
same,IC90,[1]; D6,1.88 µg/mL
same,IC50,[2]; W2,1.63 µg/mL
same,IC90,[2]; W2,4.52 µg/mL
O=C1C(O)=C([C@H]2CC[C@H](c3ccc(Cl)cc3)CC2)C(=O)c2ccccc21 [Atovaquovone],Concentrations of other compounds that inhibited these clones in this assay,[1]; [6],0.12 ng/mL
same,Concentrations of other compounds that inhibited these clones in this assay,[2]; [7],0.13 ng/mL
"O=C(NO)c1ccccc1O [SHAM, Salicylhydroxamic acid]",effect against T. gondii,[3],effective against T. gondii
same,restriction of CPM (tritiated uracil incorporation),"[3]; SHAM 0.16 μg/ml, 4 day assay, medium around 54,000 CPM",around 50%
same,counts (tritiated uracil incorporation),"[3]; SHAM 0.78 μg/ml, 4 days, medium around 54,000, no RH around 1,000 CPM","about 8,000 CPM"
same,approximate 95% Cl count (mean parasite count per field),"C. parvum; SHAM 0.1 μg/ml, 0.2% ETOH, media and ethanol ~1200",~1200 count/field
same,approximate 95% Cl count (mean parasite count per field),"C. parvum; SHAM 1 μg/ml, 0.2% ETOH, media and ethanol ~1200",~1100 count/field
same,approximate 95% Cl count (mean parasite count per field),"C. parvum; SHAM 10 μg/ml, 0.2% ETOH, media and ethanol ~1200",~1100 count/field
same,approximate 95% Cl count (mean parasite count per field),"C. parvum; SHAM 100 μg/ml, 0.2% ETOH, media and ethanol ~1200",~400 count/field
same,parasitemia and number of brain cysts in vivo,T. gondii,affects parasitemia and number of brain cysts
